Measurements as given in the supplement of paper PMC11061612.

Assays:
Test in all cases: Bliss excess, mean over the matrix (fraction); higher = more synergy
[1] = system: TE-9 (Esophageal Squamous Cell Carcinoma)
How it was run: (§1)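 Bliss excess equals the observed combination effect minus the expected value EA + EB − EA·EB, where EA and EB are the effects of each agent alone. Combination Emax is the second-highest inhibition within the matrix. Inhibition was scaled from CellTiter-Glo 2.0 luminescence, with 0 set by vehicle wells and 1 by blank wells, after 72 hours of two-drug dosing of cells plated in 1536-well plates.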

[2] = system: CCRF-CEM (T-Lymphoblastic Leukemia)
How it was run: as §1

[3] = system: NCI-H82 (Small Cell Lung Carcinoma)
How it was run: as §1

[4] = system: Calu-3 (Lung Adenocarcinoma)
How it was run: as §1

[5] = system: ME-1 (Acute Myeloid Leukemia)
How it was run: as §1

ES4 (Ewing's Sarcoma) = system: ES4 (Ewing's Sarcoma)
How it was run: as §1

[6] = system: EC-GI-10 (Esophageal Squamous Cell Carcinoma)
How it was run: as §1

[7] = system: OVCA420 (Ovarian Carcinoma)
How it was run: as §1

KELLY (Neuroblastoma) = system: KELLY (Neuroblastoma)
How it was run: as §1

[8] = system: MFE-296 (Endometrial Carcinoma)
How it was run: as §1

[9] = system: Daoy (Other Solid Carcinomas)
How it was run: as §1

[10] = system: DoTc2-4510 (Cervical Carcinoma)
How it was run: as §1

[11] = system: CaR-1 (Colorectal Carcinoma)
How it was run: as §1

[12] = system: LB831-BLC (Bladder Carcinoma)
How it was run: as §1

HOS (Osteosarcoma) = system: HOS (Osteosarcoma)
How it was run: as §1

[13] = system: LS-180 (Colorectal Carcinoma)
How it was run: as §1

[14] = system: HCC-78 (Lung Adenocarcinoma)
How it was run: as §1

T98G (Glioblastoma) = system: T98G (Glioblastoma)
How it was run: as §1

[15] = system: KYSE-520 (Esophageal Squamous Cell Carcinoma)
How it was run: as §1

C[C@@H]1COCCN1c1cc(C2([S@](C)(=N)=O)CC2)nc(-c2ccnc3[nH]ccc23)n1 [AZD6738] + O=C(c1cc(Cc2n[nH]c(=O)c3ccccc23)ccc1F)N1CCN(C(=O)C2CC2)CC1 [Olaparib] (first compound max 10 µM, 7x7, partner max 10 µM)
Bliss excess [1]: 0.0403 | Bliss excess [2]: 0.0377 | Bliss excess [3]: -0.0194 | Bliss excess [4]: 0.0139 | Bliss excess [5]: -0.0056 | Bliss excess (ES4 (Ewing's Sarcoma)): 0.0608 | Bliss excess [6]: -0.0147 | Bliss excess [7]: 0.0117 | Bliss excess (KELLY (Neuroblastoma)): 0.0227 | Bliss excess [8]: 0.029 | Bliss excess [9]: 0.0116 | Bliss excess [10]: 0.0652 | Bliss excess [11]: -0.0391 | Bliss excess [12]: 0.0336 | Bliss excess (HOS (Osteosarcoma)): 0.0132 | Bliss excess [13]: 0.0208 | Bliss excess [14]: 0.0171 | Bliss excess (T98G (Glioblastoma)): -0.0192 | Bliss excess [15]: -0.0402

Cc1cc2ncnn2cc1Nc1ncc2c(n1)n(C1CCOCC1)c(=O)n2C [AZD7648] + C=CCn1c(=O)c2cnc(Nc3ccc(N4CCN(C)CC4)cc3)nc2n1-c1cccc(C(C)(C)O)n1 [AZD1775] (first compound max 10 µM, partner max 1 µM)
Bliss excess [1]: 0.0148 | Bliss excess [2]: 0.0337 | Bliss excess [3]: -0.0429 | Bliss excess [4]: -0.0073 | Bliss excess [5]: 0.0321 | Bliss excess (ES4 (Ewing's Sarcoma)): 0.0337 | Bliss excess [6]: -0.0049 | Bliss excess [7]: -0.0186 | Bliss excess (KELLY (Neuroblastoma)): 0.015 | Bliss excess [8]: -0.0096 | Bliss excess [9]: 0.0018 | Bliss excess [10]: -0.0004 | Bliss excess [11]: 0.0022 | Bliss excess [12]: -0.0611 | Bliss excess (HOS (Osteosarcoma)): -0.0109 | Bliss excess [13]: -0.0272 | Bliss excess [14]: -0.0417 | Bliss excess (T98G (Glioblastoma)): 0.0062 | Bliss excess [15]: 0.0058

Cc1cc2ncnn2cc1Nc1ncc2c(n1)n(C1CCOCC1)c(=O)n2C [AZD7648] + CCN(CCO)CCCOc1ccc2c(Nc3cc(CC(=O)Nc4cccc(F)c4)[nH]n3)ncnc2c1 [AZD2811] (first compound max 10 µM, 7x7, partner max 1 µM)
Bliss excess [1]: -0.0002 | Bliss excess [2]: -0.0396 | Bliss excess [3]: 0.0981 | Bliss excess [4]: 0.002 | Bliss excess [5]: 0.0036 | Bliss excess (ES4 (Ewing's Sarcoma)): 0.0076 | Bliss excess [6]: 0.0846 | Bliss excess [7]: -0.0057 | Bliss excess (KELLY (Neuroblastoma)): 0.0518 | Bliss excess [8]: -0.0112 | Bliss excess [9]: 0.0083 | Bliss excess [10]: -0.0115 | Bliss excess [11]: -0.0102 | Bliss excess [12]: -0.0477 | Bliss excess (HOS (Osteosarcoma)): 0.0182 | Bliss excess [13]: 0.0165 | Bliss excess [14]: -0.014 | Bliss excess (T98G (Glioblastoma)): 0.0116 | Bliss excess [15]: 0.0138

Cc1cc2ncnn2cc1Nc1ncc2c(n1)n(C1CCOCC1)c(=O)n2C [AZD7648] + CN(C)CCCOc1ccc(-c2ccc3ncc4c(c3c2)n(C2CCOCC2)c(=O)n4C)cn1 [AZD0156] (first compound max 10 µM, 7x7, partner max 1 µM)
Bliss excess [1]: 0.009 | Bliss excess [2]: -0.003 | Bliss excess [3]: 0.0094 | Bliss excess [4]: -0.0252 | Bliss excess [5]: -0.0326 | Bliss excess (ES4 (Ewing's Sarcoma)): -0.0163 | Bliss excess [6]: 0.0001 | Bliss excess [7]: 0.019 | Bliss excess (KELLY (Neuroblastoma)): 0.0637 | Bliss excess [8]: 0.0042 | Bliss excess [9]: 0.0614 | Bliss excess [10]: 0.0054 | Bliss excess [11]: 0.0399 | Bliss excess [12]: -0.0154 | Bliss excess (HOS (Osteosarcoma)): -0.0172 | Bliss excess [13]: -0.0443 | Bliss excess [14]: 0.0106 | Bliss excess (T98G (Glioblastoma)): -0.0317 | Bliss excess [15]: -0.0068

Cc1cc2ncnn2cc1Nc1ncc2c(n1)n(C1CCOCC1)c(=O)n2C [AZD7648] + C[C@@H]1COCCN1C2=NC(=NC(=C2)C3(CC3)[S@](=N)(=O)C)C4=C5C=CNC5=NC=C4 [AZD6738] (first compound max 10 µM, 7x7, partner max 10 µM)
Bliss excess [1]: 0.0252 | Bliss excess [2]: 0.0206 | Bliss excess [3]: -0.0596 | Bliss excess [4]: 0.0012 | Bliss excess [5]: -0.0321 | Bliss excess (ES4 (Ewing's Sarcoma)): 0.0062 | Bliss excess [6]: -0.0064 | Bliss excess [7]: 0.0074 | Bliss excess (KELLY (Neuroblastoma)): 0.0663 | Bliss excess [8]: 0.0193 | Bliss excess [9]: 0.0328 | Bliss excess [10]: 0.0178 | Bliss excess [11]: 0.0287 | Bliss excess [12]: 0.0485 | Bliss excess (HOS (Osteosarcoma)): 0.0345 | Bliss excess [13]: 0.0003 | Bliss excess [14]: -0.0011 | Bliss excess (T98G (Glioblastoma)): 0.0339 | Bliss excess [15]: 0.0356

Cc1cc2ncnn2cc1Nc1ncc2c(n1)n(C1CCOCC1)c(=O)n2C [AZD7648] + O=C(c1cc(Cc2n[nH]c(=O)c3ccccc23)ccc1F)N1CCN(C(=O)C2CC2)CC1 [Olaparib] (first compound max 10 µM, 7x7, partner max 10 µM)
Bliss excess [1]: -0.0264 | Bliss excess [2]: -0.0213 | Bliss excess [3]: -0.0382 | Bliss excess [4]: -0.0351 | Bliss excess [5]: -0.004 | Bliss excess (ES4 (Ewing's Sarcoma)): 0.0132 | Bliss excess [6]: -0.0478 | Bliss excess [7]: -0.035 | Bliss excess (KELLY (Neuroblastoma)): -0.0241 | Bliss excess [8]: -0.0255 | Bliss excess [9]: -0.0102 | Bliss excess [10]: -0.0428 | Bliss excess [11]: -0.0399 | Bliss excess [12]: 0.0067 | Bliss excess (HOS (Osteosarcoma)): 0.0023 | Bliss excess [13]: -0.0896 | Bliss excess [14]: -0.0133 | Bliss excess (T98G (Glioblastoma)): -0.0965 | Bliss excess [15]: -0.0138

CS(=O)(=O)CCNCc1ccc(-c2ccc3ncnc(Nc4ccc(OCc5cccc(F)c5)c(Cl)c4)c3c2)o1 [Lapatinib] + NC1(c2ccc(-c3nc4ccn5c(=O)[nH]nc5c4cc3-c3ccccc3)cc2)CCC1 [MK-2206] (first compound max 10 µM, 7x7, partner max 10 µM)
Bliss excess [1]: -0.0208 | Bliss excess [2]: 0.026 | Bliss excess [3]: -0.0176 | Bliss excess [4]: 0.0123 | Bliss excess [5]: -0.0069 | Bliss excess [7]: 0.0085 | Bliss excess (KELLY (Neuroblastoma)): 0.0098 | Bliss excess [8]: -0.026 | Bliss excess [10]: 0.0089 | Bliss excess [11]: -0.0032 | Bliss excess [12]: -0.0044 | Bliss excess (HOS (Osteosarcoma)): -0.0218 | Bliss excess [13]: 0.0501 | Bliss excess [14]: -0.0464 | Bliss excess (T98G (Glioblastoma)): 0.0128

CCc1c2c(nc3ccc(O)cc13)-c1cc3c(c(=O)n1C2)COC(=O)[C@]3(O)CC [SN-38] + O=C(c1cc(Cc2n[nH]c(=O)c3ccccc23)ccc1F)N1CCN(C(=O)C2CC2)CC1 [Olaparib] (first compound max 0.3 µM, 7x7, partner max 10 µM)
Bliss excess [1]: 0.0419 | Bliss excess [2]: 0.0463 | Bliss excess [3]: -0.0065 | Bliss excess [4]: 0.0909 | Bliss excess [5]: 0.0041 | Bliss excess (ES4 (Ewing's Sarcoma)): -0.0648 | Bliss excess (KELLY (Neuroblastoma)): 0.0404 | Bliss excess [8]: 0.0741 | Bliss excess [9]: 0.119 | Bliss excess [10]: 0.0174 | Bliss excess [11]: 0.0221 | Bliss excess [12]: 0.0617 | Bliss excess (HOS (Osteosarcoma)): 0.0819 | Bliss excess [13]: 0.064 | Bliss excess [14]: 0.0106 | Bliss excess (T98G (Glioblastoma)): 0.107
